Read-outs that look alike come from different tables or passages of the source.
How the values were obtained:
[1] = cited from earlier work
[2] = cited from earlier work; remark: listed apart in the source
[3] = system: rainbow trout (Oncorhynchus mykiss); test: Contribution of tissues to fish body burden; type: in vivo; details: for % contribution to body burden, Gills / % contribution to body burden, Liver / % contribution to body burden, Mucus / % contribution to body burden, Muscle / % contribution to body burden, Skin / Share of body burden present in gills and mucus / Share of body burden in interior tissues (blood, liver, and muscle): in vivo; for Contribution of Other tissue (all apart from blood, liver, gills and skin; muscle concentration assumed) to body burden: fraction
From the text: To calculate the quantity of the test chemical in the different tissues, the amount of each tissue in the fish was estimated and multiplied by the concentration in that tissue. The test chemical quantities in the different tissues were then summed to give the body burden in each fish. The total weight of the fish and the weight of the liver and gills were available from the dissection (Table S16). For skin and mucus, the estimated outer surface area of the fish was used. We note that the distinction between mucus and skin is an operational one determined by the extraction method; mucus can be viewed as a more readily extracted fraction of the test chemical residues at the fish surface. The volume of blood was taken as 0.0495 mL g^–1 fish.[30] The remaining tissue (difference between the weight of the whole fish and the weight of liver, gills, skin, and blood) was assumed to have the concentration measured in the muscle. The contribution of the different tissues to the body burden is given for each fish in Table S17, and the average contribution across all fish is plotted in Figure 1. All of the tissues, with the exception of blood, contribute at least 10% of the body burden for at least half of the test chemicals. There is no consistent negative correlation between the fraction of chemical associated with blood, muscle, and liver (tissues where the residue originates entirely from systemic uptake) and alkyl chain length (a measure of hydrophobicity). Thus, although adsorption to fish surfaces appears to play a significant role, its contribution to body burden cannot be simply predicted from surfactant hydrophobicity. In the following, we examine uptake in individual tissues.

[4] = system: rainbow trout (Oncorhynchus mykiss); test: Surface area-normalized mucus-water and gill-water distribution coefficients; details: in vivo
Method: For each mixture, the syringe pump was started in an aquarium containing no fish. After 16 h, to allow the concentrations to stabilize, 12 rainbow trout were added. After 7 d of exposure, the fish in the exposure aquaria as well as several unexposed (control) fish were sacrificed. Following stunning, blood was collected with a heparinized syringe from the caudal vein into a 2 mL Eppendorf tube. The fish were weighed and photographed, and the length was measured. The outer surface area of the fish was estimated from the fish weight according to O’Shea et al.[27] [drawing 1] 1
The gill surface area was estimated from the fish weight according to the equation specific for O. mykiss from a report by Hughes,[28] taken from ref ([29]) [drawing 2] 2
Because the mass of extracted mucus was not determined, the concentrations in mucus were normalized to the estimated fish’s total surface area (eq 1) excluding the head, which was not rinsed.
Surface area-normalized gill–water distribution coefficients (DG–W) were calculated from the average concentrations measured in gills and water, and a calculated gill surface based on rainbow trout specific scaling factors (eq 2). […] Unlike the skin, the gills were not rinsed with methanol, so the gill samples included gill mucus.

[5] = system: Salmo trutta; parameters: method as in REACH dossiers (European Chemicals Agency); details: ref REACH dossiers (European Chemicals Agency); cited from earlier work
[6] = system: Danio rerio; details: ref REACH dossiers (European Chemicals Agency); cited from earlier work
[7] = system: bluegill fish (Lepomis macrochirus); details: cited from earlier work
[8] = system: killifish; details: cited from earlier work
[9] = secondary amines, no reference given

SMILES | % contribution to body burden, Gills [3] | % contribution to body burden, Liver [3] | % contribution to body burden, Mucus [3] | % contribution to body burden, Muscle [3] | % contribution to body burden, Skin [3] | Gill-water distribution coefficient (DG-W) [4] | Mucus-water distribution coefficient (DMuc-W) [4] | also measured
CN(C)CCC=C1c2ccccc2CCc2ccccc21 [amitriptyline, reference compound] |  |  |  |  |  |  |  | pKa [1]: […]; log DMW [2]: 3.9
CCCCCCCCCCCCCCCCNC [S16, N-methylhexadecylamine] | 53% | 12% | 4% | 16% | 14% | 300 mLcm-2 | 27 mL cm-2 | Share of body burden present in gills and mucus [3]: at least 50%
CCCCCCCCCC[N+](C)(C)C [Q10, N,N,N-trimethyl-1-decylammonium] | 23% | 3% | 11% | 37% | 24% | 0.0064 mLcm-2 | 0.0035 mL cm-2 | DG–W factor lower than tertiary amine of the same alkyl chain length [4]: 300; DMuc–W times lower than tertiary amine with the corresponding alkyl chain length [4]: 360
CCCCCCCCCCN(C)C [T10, N,N-dimethyldecylamine] | 14% | 18% | 8% | 38% | 18% | 1.95 mLcm-2 | 1.28 mL cm-2 | 96h-LC50 [5]: 1.8 µg/mL; 96h-LC50 [6]: 1.13 µg/mL; Contribution of Other tissue (all apart from blood, liver, gills and skin; muscle concentration assumed) to body burden ([3]; Fish #1): 0.54; Contribution of Other tissue (all apart from blood, liver, gills and skin; muscle concentration assumed) to body burden ([3]; Fish #2): 0.33; Contribution of Other tissue (all apart from blood, liver, gills and skin; muscle concentration assumed) to body burden ([3]; Fish #3): 0.35; Contribution of Other tissue (all apart from blood, liver, gills and skin; muscle concentration assumed) to body burden ([3]; Fish #4): 0.29; Contribution of Other tissue (all apart from blood, liver, gills and skin; muscle concentration assumed) to body burden ([3]; Fish #5): 0.38; Contribution of Other tissue (all apart from blood, liver, gills and skin; muscle concentration assumed) to body burden ([3]; Fish #6): 0.37; Contribution of Other tissue (all apart from blood, liver, gills and skin; muscle concentration assumed) to body burden ([3]; Mean): 0.38; Share of body burden in interior tissues (blood, liver, and muscle) [3]: more than half
CCCCCCCCCC[N+](C)(C)CCCCCCCCCC [didecyldimethylammonium chloride] |  |  |  |  |  |  |  | bioconcentration factor (BCF) ([7]; 14C-labeled): 81 L kg^–1; 14C residues in the skin, times higher than in edible tissues [7]: 2–6
CN[C@H]1CC[C@@H](c2ccc(Cl)c(Cl)c2)c2ccccc21 [sertraline, reference compound] |  |  |  |  |  |  |  | pKa [1, 9]: > 9.5; log DMW ([2]; membrane–water distribution coefficient): 4.3
CCCCCCCCCCCCNC [S12, N-methyldodecylamine] | 20% | 17% | 7% | 32% | 21% | 13.3 mLcm-2 | 5.4 mL cm-2 | Share of body burden in interior tissues (blood, liver, and muscle) [3]: more than half
COc1ccc([C@@H]2Sc3ccccc3N(CCN(C)C)C(=O)[C@@H]2OC(C)=O)cc1 [diltiazem] |  |  |  |  |  |  |  | Vd, plasma concentration based [8]: 0.19–0.28 L kg^–1
CNCCC(Oc1ccc(C(F)(F)F)cc1)c1ccccc1 (centres unmarked) [fluoxetine, reference compound] |  |  |  |  |  |  |  | pKa [1, 9]: > 9.5
CCCCCCCCCCCCCCN(C)C [T14, N,N-dimethyltetradecylamine] | 34% | 7% | 11% | 22% | 24% | 150 mLcm-2 | 51 mL cm-2 | 96h-LC50 [5]: 0.18 µg/mL; 96h-LC50 [6]: 0.35 µg/mL; Contribution of Other tissue (all apart from blood, liver, gills and skin; muscle concentration assumed) to body burden ([3]; Fish #1): 0.22; Contribution of Other tissue (all apart from blood, liver, gills and skin; muscle concentration assumed) to body burden ([3]; Fish #2): 0.21; Contribution of Other tissue (all apart from blood, liver, gills and skin; muscle concentration assumed) to body burden ([3]; Fish #3): 0.24; Contribution of Other tissue (all apart from blood, liver, gills and skin; muscle concentration assumed) to body burden ([3]; Fish #4): 0.21; Contribution of Other tissue (all apart from blood, liver, gills and skin; muscle concentration assumed) to body burden ([3]; Fish #5): 0.20; Contribution of Other tissue (all apart from blood, liver, gills and skin; muscle concentration assumed) to body burden ([3]; Fish #6): 0.24; Contribution of Other tissue (all apart from blood, liver, gills and skin; muscle concentration assumed) to body burden ([3]; Mean): 0.22
CCCCCCCCCCCCCC[N+](C)(C)C [Q14, N,N,N-trimethyl-1-tetradecylammonium] | 70% | 5% | 10% | 7% | 8% | 9.5 mLcm-2 | 1.40 mL cm-2 | Share of body burden present in gills and mucus [3]: at least 50%; DG–W factor lower than tertiary amine of the same alkyl chain length [4]: 18; DMuc–W higher than Q10 [4]: 2.6 log units; DMuc–W times lower than tertiary amine with the corresponding alkyl chain length [4]: 37
